Like-named read-outs stand apart in the source and are kept apart here.
Assays:
[1] = target: PARP 1 (Homo sapiens, UniProt P09874); settings: cell-free assay; cited from earlier work
[2] = system: HCC1806; test: Cell survival (CellTiter-Glo) after SN-38 and/or PARP inhibitor; format: cell-based; settings: Exp. 1, single agent
Experimental: (§1) Cells were plated at 1000 cells/well and then incubated for 24 hours. […] The plates were then allowed to incubate for 72 hours period. After the 72 hour incubation period the media was removed and cell viability was determined using the CellTiter-Glo® cell viability assay (Promega, Madison Wis.) according to the product instructions.

[3] = system: SUM159PT; test: as above; format: cell-based; settings: for IC50: Homo sapiens, SUM-159-PT
Experimental: as §1

[4] = system: HCC38; test: as above; format: cell-based; settings: HCC38, Exp. 1, single agent
Experimental: as §1

[5] = system: BT20; test: as above; format: cell-based; settings: for IC50: Homo sapiens
Experimental: as §1

[6] = system: BT549; test: as above; format: cell-based; settings: for IC50: Homo sapiens
Experimental: as §1

[7] = system: HCC1187; test: as above; format: cell-based; settings: for IC50: Homo sapiens
Experimental: as §1

[8] = system: PARP-DNA complexes; settings: compared with veliparib; cited from earlier work
[9] = system: SUM149PT; test: Cell survival (CellTiter-Glo) after SN-38 and/or PARP inhibitor; format: cell-based; settings: Homo sapiens, read-out: IC50 log10 (μM) (converted)
Experimental: as §1

[10] = Estimated tumor range
[11] = system: NCI-H1048 small cell lung cancer cells; test: % cell number over time, SN-38 with PARP inhibitors; format: cell-based; settings: SN-38 at 2 nM; NCI-H1048 SCLC cells
[12] = system: DMS-114 small cell lung cancer cells; test: as above; format: cell-based; settings: SN-38 at 2 nM; DMS-114 SCLC cells
[13] = system: CFPAC-1 pancreatic cancer cells; test: as above; format: cell-based; settings: SN-38 at 2 nM
[14] = target: tankyrase-1 (Homo sapiens, UniProt O95271); settings: cell-free assays; cited from earlier work
Sequence of tankyrase-1 (O95271 whole entry, species assumed): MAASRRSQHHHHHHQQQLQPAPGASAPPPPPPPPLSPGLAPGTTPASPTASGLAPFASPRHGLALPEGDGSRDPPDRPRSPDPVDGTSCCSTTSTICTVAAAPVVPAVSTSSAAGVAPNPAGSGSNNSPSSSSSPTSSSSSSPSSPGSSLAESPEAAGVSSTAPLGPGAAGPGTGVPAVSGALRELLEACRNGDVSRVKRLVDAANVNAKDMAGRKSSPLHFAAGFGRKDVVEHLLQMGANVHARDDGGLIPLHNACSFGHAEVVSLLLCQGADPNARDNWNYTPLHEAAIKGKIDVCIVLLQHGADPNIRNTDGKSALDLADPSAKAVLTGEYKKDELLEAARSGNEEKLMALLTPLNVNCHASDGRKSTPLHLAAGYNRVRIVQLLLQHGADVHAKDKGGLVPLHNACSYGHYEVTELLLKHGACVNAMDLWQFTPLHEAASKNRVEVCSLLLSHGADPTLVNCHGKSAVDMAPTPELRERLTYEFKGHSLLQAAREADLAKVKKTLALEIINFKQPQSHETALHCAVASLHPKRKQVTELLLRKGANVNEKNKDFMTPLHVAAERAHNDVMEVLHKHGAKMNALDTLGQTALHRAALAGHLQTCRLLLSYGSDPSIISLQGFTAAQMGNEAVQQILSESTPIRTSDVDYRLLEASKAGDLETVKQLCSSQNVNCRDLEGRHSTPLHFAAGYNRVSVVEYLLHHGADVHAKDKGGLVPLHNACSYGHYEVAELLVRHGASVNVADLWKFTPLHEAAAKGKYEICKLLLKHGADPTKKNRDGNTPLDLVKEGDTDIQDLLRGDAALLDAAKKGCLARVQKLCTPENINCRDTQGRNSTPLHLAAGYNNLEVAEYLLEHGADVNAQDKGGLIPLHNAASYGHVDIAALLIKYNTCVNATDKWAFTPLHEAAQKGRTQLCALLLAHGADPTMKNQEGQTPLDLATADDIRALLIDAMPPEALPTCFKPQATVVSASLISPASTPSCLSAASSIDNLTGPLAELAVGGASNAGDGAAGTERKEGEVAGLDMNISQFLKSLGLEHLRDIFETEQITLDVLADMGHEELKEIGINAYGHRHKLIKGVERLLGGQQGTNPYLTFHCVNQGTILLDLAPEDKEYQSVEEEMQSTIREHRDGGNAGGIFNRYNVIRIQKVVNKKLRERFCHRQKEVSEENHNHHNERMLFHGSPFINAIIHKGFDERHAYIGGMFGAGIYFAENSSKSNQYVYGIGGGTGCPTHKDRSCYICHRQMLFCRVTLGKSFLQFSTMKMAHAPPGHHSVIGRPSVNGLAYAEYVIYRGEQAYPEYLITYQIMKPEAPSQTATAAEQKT

[15] = system: small cell lung cancer (SCLC), pancreatic cancer and breast cancer cell lines; test: Growth inhibition, SN-38 with PARP inhibitors; format: cell-based; settings: 2 nM SN-38
[16] = system: PAR; settings: Table 2B, unit inferred; cited from earlier work
[17] = Homo sapiens, read-out: IC50 log10 (converted)

Sequence of PARP 1 (P09874 whole entry, species assumed): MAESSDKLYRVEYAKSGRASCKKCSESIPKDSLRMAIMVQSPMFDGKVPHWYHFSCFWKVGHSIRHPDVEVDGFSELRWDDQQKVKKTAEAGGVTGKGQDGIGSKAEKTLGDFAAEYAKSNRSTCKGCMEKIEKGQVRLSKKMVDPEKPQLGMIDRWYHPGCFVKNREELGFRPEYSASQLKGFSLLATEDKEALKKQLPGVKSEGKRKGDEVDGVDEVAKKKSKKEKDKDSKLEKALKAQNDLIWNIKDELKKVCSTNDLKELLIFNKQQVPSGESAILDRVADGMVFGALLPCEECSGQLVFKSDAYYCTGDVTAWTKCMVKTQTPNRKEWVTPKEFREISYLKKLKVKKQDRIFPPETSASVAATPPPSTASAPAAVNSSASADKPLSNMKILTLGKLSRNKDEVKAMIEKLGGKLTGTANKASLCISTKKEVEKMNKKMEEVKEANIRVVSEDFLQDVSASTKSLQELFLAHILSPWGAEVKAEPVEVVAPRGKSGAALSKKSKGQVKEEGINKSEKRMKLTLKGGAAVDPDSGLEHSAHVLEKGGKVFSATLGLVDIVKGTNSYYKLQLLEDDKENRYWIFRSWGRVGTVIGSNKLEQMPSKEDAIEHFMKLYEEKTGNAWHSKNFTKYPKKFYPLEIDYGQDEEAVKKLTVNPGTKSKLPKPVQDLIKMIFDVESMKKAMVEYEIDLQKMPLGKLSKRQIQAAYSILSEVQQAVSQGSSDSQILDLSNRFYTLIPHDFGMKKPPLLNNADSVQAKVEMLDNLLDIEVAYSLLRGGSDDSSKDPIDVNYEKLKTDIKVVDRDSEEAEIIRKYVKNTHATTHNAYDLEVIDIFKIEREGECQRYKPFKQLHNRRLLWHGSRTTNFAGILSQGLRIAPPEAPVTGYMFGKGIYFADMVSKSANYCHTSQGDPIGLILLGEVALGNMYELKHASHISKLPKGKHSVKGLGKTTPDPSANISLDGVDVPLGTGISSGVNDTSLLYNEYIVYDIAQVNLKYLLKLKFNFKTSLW

For CN(C)Cc1ccc(-c2nc3cccc4c3n2CCNC4=O)cc1 [AG-14361], which Ki [1] is on record?
Its Ki is < 0.005 µM.

For NC(=O)c1cccc2cn(-c3ccc([C@@H]4CCCNC4)cc3)nc12 [Niraparib], which “Maximum Kill Percent” value [2] is on record?
The value was 100%.

And the IC50 [2, 17]?
Its IC50 is 18.6 µM.

What about the IC50 ([3]; SUM159PT, Exp. 1, single agent, read-out: IC50 log10 (converted)) of the same compound?
Its IC50 is 2.24 µM.

And the “Maximum Kill Percent” value ([3]; SUM159PT, Exp. 1, single agent)?
Its value is 97%.

And the “Maximum Kill Percent” value [4]?
Its value is 100%.

What about the IC50 [4, 17] of the same compound?
Its IC50 is 17 µM.

And the “Maximum Kill Percent” value ([5]; BT20, Exp. 1, single agent)?
Its value is 100%.

What about the IC50 ([5]; BT-20, BT20, Exp. 1, single agent, read-out: IC50 log10 (converted)) of the same compound?
Its IC50 is 138 µM.

And the “Maximum Kill Percent” value ([6]; BT549, Exp. 1, single agent)?
The value was 100%.

What about the IC50 ([6]; BT-549, BT549, Exp. 1, single agent, read-out: IC50 log10 (converted)) of the same compound?
The IC50 was 107 µM.

What about the “Maximum Kill Percent” value ([7]; HCC1187, Exp. 1, single agent) of the same compound?
The value was 98%.

And the IC50 ([7]; HCC1187, Exp. 1, single agent, read-out: IC50 log10 (converted))?
Its IC50 is 129 µM.

What about the “potency at PARP trapping” value [8] of the same compound?
Its value is “much more potent at PARP trapping than veliparib”.

With O=C(c1cc(Cc2n[nH]c(=O)c3ccccc23)ccc1F)N1CCN(C(=O)C2CC2)CC1 [Olaparib] as the compound, how does the IC50 ([3]; read-out: IC50 log10 (μM) (converted)) read?
Its IC50 is 1.51 µM.

What about the IC50 ([5]; BT-20, read-out: IC50 log10 (μM) (converted)) of the same compound?
The IC50 was 17.4 µM.

What about the IC50 ([6]; BT-549, read-out: IC50 log10 (μM) (converted)) of the same compound?
The IC50 was 110 µM.

And the IC50 ([7]; HCC1187, read-out: IC50 log10 (μM) (converted))?
The IC50 was 257 µM.

And the IC50 [9]?
The IC50 was 251 µM.

And the Estimated tumor range [10]?
Its Estimated tumor range is 8 µM.

And the “sensitivity of cells to combination with SN-38” value [11]?
Its value is “very sensitive”.

And the “effect of combination with SN-38” value [12]?
The value was “Additive/synergistic effects”.

And the “effect of combination with SN-38” value [13]?
The value was “Additive/synergistic effects”.

What about the “less effective against tankyrase-1 than against PARP 1/2” value [14] of the same compound?
Its value is 300 times.

What about the “growth inhibition of the cancer cells in combination with SN-38” value [15] of the same compound?
The value was “additive/synergistic growth inhibition”.

What about the EC50 [16] of the same compound?
The EC50 was 0.0036 µM.

Source: US11844795B2, “Combination therapy for cancer treatment” (Ipsen Biopharm Ltd., priority 2015, dated 2023)
